These results are taken from ChEMBL document CHEMBL1142809, “SAR studies of 2-arylthiazolidine-4-carboxylic acid amides: a novel class of cytotoxic agents for prostate cancer” (Bioorg Med Chem Lett, 2005).

pIC50: −log10 of the molar value.

By pIC50 is commonly meant the IC50 on a negative log10 scale, so that one unit is a factor of ten.

Format in all cases: functional, cell-based
One assay deals with LNCaP. The assay is described as follows: Antiproliferative activity against human prostate cancer LNCaP cell line by sulforhodamine B assay. On the technique in general: Sulforhodamine B stains cellular protein and so reports cell mass.
A short description of assay [1]: Antiproliferative activity against human prostate cancer PPC-1 cell line by sulforhodamine B assay.
Another assay concerns DU-145. The assay is described as follows: Antiproliferative activity against human prostate cancer DU-145 cell line by sulforhodamine B assay.
The next assay concerns PC-3. The assay is described as follows: Antiproliferative activity against human prostate cancer PC-3 cell line by sulforhodamine B assay.
Assay [2] is described as follows: Antiproliferative activity against human prostate cancer TSU-Pr1 cell line by sulforhodamine B assay.

On to `CCCCCCCCN(CCCCCCCC)C(=O)[C@@H]1CSC(c2cc(OC)c(OC)c(OC)c2)N1` (stereo not given in full), for which the pIC50 was 5.06 in the assay on LNCaP; 4.85 in assay [1]; under 4.70 in the assay with DU-145; under 4.70 with PC-3; under 4.70 in assay [2].
As to `CCCCCCCCCCCCCCCCCCNC(=O)[C@@H]1CSC(c2ccc(OCC)cc2)N1` (stereo not given in full), the pIC50 in the assay with LNCaP was 5.21; in assay [1] it was 5.36; in the assay with DU-145, under 4.70; in the assay on PC-3 it was under 4.70; in assay [2], under 4.70.
As for `CCCCCCCCCCCCCCCCCCNC(=O)[C@@H]1CSC(c2cccc(O)c2)N1` (stereo not given in full), the pIC50 was 5.77 in the assay on LNCaP; 5.92 in assay [1]; 5.24 in the assay with DU-145; 5.17 in the assay on PC-3; 5.40 in assay [2].
On to `CCCCCCCCCCCCCCCCCCNC(=O)[C@H]1NC(c2ccc(N(C)C)cc2)SC1(C)C` (stereo not given in full), for which the pIC50 (in the assay on LNCaP; in assay [1]; in the assay on DU-145; with PC-3; in assay [2]) was under 4.70 each time.
For `CCCCCCCCCCCCCCCCCCNC(=O)[C@@H]1CSC(c2ccc(O)cc2)N1` (stereo not given in full), the pIC50 in the assay with LNCaP is 5.80; in assay [1], 6.09; with DU-145, 5.51; in the assay on PC-3 it was 5.28; in assay [2] it was 5.52.
In the case of `CCCCCCCCCCCCCCCCCCNC(=O)[C@H]1NC(c2cc(OC)c(OC)c(OC)c2)SC1(C)C` (stereo not given in full), the pIC50 in the assay with LNCaP is under 4.70; in assay [1] it was 4.73; in the assay with DU-145, under 4.70; in the assay with PC-3, under 4.70; in assay [2], under 4.70.
For `CCCCCCCCCCCCCCCCCCNC(=O)[C@@H]1CSC(c2ccc(OC)cc2)N1` (stereo not given in full), the pIC50 in the assay on LNCaP is 5.68; in assay [1] it was 5.82; with DU-145 it was 5.06; with PC-3 it was 4.72; in assay [2], 4.71.
Take `CCCCCCCCCCCCCCCCCCNC(=O)[C@@H]1CSC(c2ccc(N(C)C)cc2)N1` (stereo not given in full): the pIC50 is 5.80 in the assay with LNCaP; 5.96 in assay [1]; 5.28 with DU-145; 5.22 with PC-3; 5.52 in assay [2].
Consider `CCCCCCCCCCCCCCCCCCNC(=O)[C@@H]1CSC(c2c(OC)cc(OC)cc2OC)N1` (stereo not given in full), for which the pIC50 with LNCaP is 5.62; in assay [1] it was 6.08; with DU-145, 5.14; with PC-3 it was 4.97; in assay [2], 5.21.
`CCCCCCCCCCCCCCCCCCNC(=O)[C@@H]1CSC(c2cc(OC)c(OC)c(OC)c2)N1` (stereo not given in full): the pIC50 in the assay with LNCaP was 6.09; in assay [1], 6.32; in the assay with DU-145, 5.41; in the assay with PC-3, 5.40; in assay [2], 5.62.
